{"source": "paper PMC8538513", "about": "“Inhibition of Matrix Metalloproteinases and Cancer Cell Detachment by Ru(II) Polypyridyl Complexes Containing 4,7-Diphenyl-1,10-phenanthroline Ligands—New Candidates for Antimetastatic Agents” (Pharmaceuticals, 2021)", "key": {"[1]": {"molecular_target": "T1, MMP-2 (Homo sapiens, UniProt P08253)", "T1 construct": "purchased Sigma-Aldrich", "T1 sequence (P08253 110-660)": "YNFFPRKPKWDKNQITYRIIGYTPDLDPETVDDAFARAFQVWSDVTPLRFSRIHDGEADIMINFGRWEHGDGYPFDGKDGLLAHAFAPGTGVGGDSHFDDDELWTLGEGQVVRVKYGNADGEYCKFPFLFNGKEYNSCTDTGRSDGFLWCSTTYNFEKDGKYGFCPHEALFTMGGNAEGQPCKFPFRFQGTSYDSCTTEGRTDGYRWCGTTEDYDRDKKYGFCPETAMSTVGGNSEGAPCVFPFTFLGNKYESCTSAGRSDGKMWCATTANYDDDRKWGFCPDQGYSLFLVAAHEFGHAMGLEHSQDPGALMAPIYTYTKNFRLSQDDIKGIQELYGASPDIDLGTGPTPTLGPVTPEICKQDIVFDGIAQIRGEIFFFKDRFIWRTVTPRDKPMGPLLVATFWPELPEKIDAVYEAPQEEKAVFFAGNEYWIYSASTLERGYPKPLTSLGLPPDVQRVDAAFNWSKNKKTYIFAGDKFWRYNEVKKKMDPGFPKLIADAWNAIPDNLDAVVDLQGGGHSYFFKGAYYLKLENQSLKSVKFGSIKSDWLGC", "assay": "MMP-2 inhibition, fluorogenic substrate FS-6", "type": "biochemical", "settings": "[FS-6] = 2.5 µM, [enzyme] = 0.5 nM, 0.1 M Tris, pH 7.4, 37 °C; n.i. = no inhibition in the studied range (>> 25 µM, for NAMI-A >> 600 µM)", "method": "(§1) MMP-9 and MMP-2 were activated at 4 °C using 1 mM APMA overnight before the experiments. MMP-2 and MMP-9 assays were performed in 0.1 M Tris/HCl (pH 7.4, 37 °C) enriched with 0.1 M NaCl, 10 mM CaCl2, 0.1 mM ZnCl2 and 0.05% Brij35. […] Kinetic fluorescence measurements were performed using a Perkin Elmer LS55 spectrofluorimeter (λex/λem = 325/400 nm). The obtained fluorescence intensities were corrected due to inner filter effect according to the following equation [31]: […] where Fobs denotes the measured fluorescence intensity, while Aλem and Aλex are the absorbance of sample at emission and excitation wavelengths.\n(§2) The enzyme activity in the presence of inhibitors was expressed as a fraction of initial reaction rate (vi/v0 ratio, v0—initial reaction rate, vi—initial reaction rate in the presence of inhibitor). IC50 parameters were calculated from a dose-response plot of enzyme fractional activity as a function of inhibitor concentration, using the Hill equation (OriginPro2018). Experiments were repeated three times and results are presented as mean values and standard deviation of the mean."}, "[2]": {"molecular_target": "T2, MMP-9 (Homo sapiens, UniProt P14780)", "T2 construct": "purchased Sigma-Aldrich", "T2 sequence (P14780 107-707 limits assumed)": "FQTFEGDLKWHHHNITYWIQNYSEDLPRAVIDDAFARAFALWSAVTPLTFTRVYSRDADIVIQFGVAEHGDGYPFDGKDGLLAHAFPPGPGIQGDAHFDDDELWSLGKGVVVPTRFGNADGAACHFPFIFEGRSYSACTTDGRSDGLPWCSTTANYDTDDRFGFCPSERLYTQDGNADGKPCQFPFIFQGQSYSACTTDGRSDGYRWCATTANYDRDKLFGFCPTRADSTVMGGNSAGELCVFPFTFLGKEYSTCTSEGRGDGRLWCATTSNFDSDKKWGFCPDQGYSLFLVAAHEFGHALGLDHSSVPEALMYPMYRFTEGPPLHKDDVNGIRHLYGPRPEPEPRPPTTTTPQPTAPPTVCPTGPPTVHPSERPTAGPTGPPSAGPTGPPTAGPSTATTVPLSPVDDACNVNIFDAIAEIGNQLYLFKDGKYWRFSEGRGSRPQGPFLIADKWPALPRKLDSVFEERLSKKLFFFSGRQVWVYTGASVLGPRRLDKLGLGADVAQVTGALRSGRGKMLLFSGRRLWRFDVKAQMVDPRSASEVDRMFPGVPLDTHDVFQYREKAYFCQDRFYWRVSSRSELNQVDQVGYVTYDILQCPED", "assay": "MMP-9 inhibition, fluorogenic substrate FS-6", "type": "biochemical", "settings": "[FS-6] = 2.5 µM, [enzyme] = 0.5 nM, 0.1 M Tris, pH 7.4, 37 °C, fluorescence assay; n.i. = no inhibition in the studied range (>> 25 µM, for NAMI-A >> 600 µM)", "method": "as §1, §2"}, "[3]": {"test_system": "MMP-9", "assay": "Western blot, expression of the active form of MMP-9", "type": "cell-based, human", "settings": "A549 cells, 24 h, 100 µM, normalized to β-actin", "method": "A549 cells were seeded in a 25 cm^2 flask with the density of 1.25 × 10^6 cells per flask in complete medium and cultured for 24 h. […] After the incubation, cells were washed with ice-cold PBS and lysed using RIPA buffer containing Halt proteases inhibitor cocktail (Thermo Fisher Scientific). Protein samples (the same concentration per lane) were separated on a 12% sodium dodecyl sulfate polyacrylamide gel. PageRuler™ Prestained Protein Ladder (Thermo Fisher Scientific) was used to determine approximate molecular weights of resolved proteins. Electrophoresis was performed through the stacking gel for 25 min at 60 V and resolving gel for 50 min at 170 V at room temperature using a PowerPac™ Basic Power Supply (Bio-Rad, Inc., Hercules, CA, USA). […] Reactive protein was detected after membrane was washed three times in TBST using GE Healthcare Amersham™ ECL Prime Western Blotting Detection Reagent (GE Healthcare Inc., Chicago, IL, USA). Only one protein was detected at a time, each membrane was stripped in 0.2 M NaOH over 20 min, washed three times in water and blocked again before proceeding with another primary antibody. Data were collected by ChemiDoc XRS+ Imaging System (Bio-Rad, Inc., Hercules, CA, USA) and analyzed with Image Lab v. […]"}, "[4]": {"test_system": "A549 cells", "assay": "Trypsin resistance assay (cell adherence)", "type": "cell-based, human", "method": "Cells susceptibility to detachment upon incubation with the studied compounds was evaluated by checking their resistance to trypsin treatment. Cells were seeded into 96-well plate with the density of 3 × 10^4 cells per cm^2 in complete medium and cultured for 24 h. Then, cells were incubated with various concentrations of the studied compounds for 24 h. Subsequently, the cells were washed and 30 µL trypsin solution (0.05%) was added to each well for 10 min incubation at 37 °C. Next, cells were washed with PBS and Alamar Blue assay was performed to quantify adherent cells. The received results were normalized with appropriate wells without the trypsin treatment to exclude the possible toxicity of the studied compounds and presented as a percentage of control (untreated) cells. Experiments were performed in triplicates and each experiment was repeated five times to obtain mean values and standard error of the mean."}, "[5]": {"test_system": "B16F10 melanoma cells", "design": "method as in PMID 16368900", "settings": "100 µM; cited from earlier work"}, "[6]": {"test_system": "A549 cells", "settings": "cited from earlier work"}, "[7]": {"test_system": "A549 cells", "assay": "Cytotoxicity, MTT assay", "type": "cell-based, human", "method": "In vitro studies were conducted using human lung adenocarcinoma A549 cell line. Cells were routinely cultured in Dulbecco’s Modified Eagle Medium (DMEM, Corning, Corning, NY, USA) supplemented with 10% fetal bovine serum (FBS, Eurx, Gdańsk, Poland) (v/v) and 1% penicillin-streptomycin (100 units/mL–100µg/mL, Corning) (v/v) and incubated at 37 °C in humidified atmosphere with 5% CO2 (v/v). The cytotoxicity of the Ru(II) complexes was evaluated using MTT assay (Sigma-Aldrich). Cells were seeded into 96-well plate with the density of 3 × 10^4 cells per cm^2 in complete medium and cultured for 24 h. Then medium was removed and various concentrations of the studied compounds in basic medium were added. The final DMSO concentration in cell culture was fixed at 0.1% (v/v). […] After the incubation, MTT was removed, and the formed violet formazan crystals were dissolved in the 100 µL of DMSO:methanol (1:1) mixture. […] Experiments were performed in triplicates and repeated three times."}, "[8]": {"test_system": "A549 cells", "assay": "Cellular uptake of ruthenium (ICP-MS)", "type": "cell-based, human", "settings": "1 µM complex, 24 h", "method": "For cellular uptake A549 cells were seeded in a 6-well plate with the density of 4 × 10^4 cells per cm^2 in complete medium and cultured for 24 h. […] Any dead cells were eliminated by washing cells’ monolayer with PBS. Subsequently, the incubated cells were washed, detached by trypsin treatment and counted. The cells were isolated by centrifugation and digested in concentrated nitric acid overnight at room temperature. The solutions were diluted with Millipore water to a final nitric acid concentration of 2%. The Ru content in the samples was measured by inductively coupled plasma mass spectrometry (ICP-MS) using NexION 2000C (Perkin Elmer). Experiments were repeated three times. Results were calculated as ruthenium concentration per cell and presented as mean values and standard deviation of mean. Similarly, the content of Ru ions was measured in subcellular fraction obtained as described in chapter 4.5."}}, "data": [{"smiles": "CS(C)=O.[Cl-].[Cl-].[Cl-].[Cl-].[Ru+3].c1c[nH+]c[nH]1.c1c[nH]cn1", "note": "[NAMI-A, trans-[tetrachlorido(1H-imidazole)(S-dimethylsulphoxide)ruthenate(III)]]", "values": [{"measurement": "IC50 for MMP-2", "setting": "[1]", "value": "no inhibitory properties and n.i."}, {"measurement": "IC50 for MMP-9", "setting": "[2]", "value": "no inhibitory properties and n.i."}, {"measurement": "Reduction of expression of active MMP-9", "setting": "[3]", "value": 43, "unit": "%"}, {"measurement": "Cell adherence (adhesion strength) compared to control", "setting": "[4]; NAMI-A 100 µM", "value": "ca. 250%"}, {"measurement": "Adhesion strength vs. control", "setting": "[5]", "value": "up to 162 % vs. control"}]}, {"smiles": "N.N.[Cl][Pt][Cl]", "note": "[cisplatin]", "values": [{"measurement": "IC50", "setting": "[6]", "value": 70, "unit": "µM"}]}, {"smiles": "CNC(=O)[C@H](Cc1c[nH]c2ccccc12)NC(=O)[C@@H](CC(=O)NO)CC(C)C", "note": "[GM6001]", "values": [{"measurement": "Toxicity at the concentration used", "setting": "[7]; 1–8 µM", "value": "non-toxic concentration"}, {"measurement": "Effect on cell adhesion properties (in words)", "setting": "[4]; GM6001 1–8 µM", "value": "no alteration in cell adhesion properties was observed"}]}, {"smiles": "[Ru+2].c1ccc(-c2ccnc3c2ccc2c(-c4ccccc4)ccnc23)cc1.c1ccc(-c2ccnc3c2ccc2c(-c4ccccc4)ccnc23)cc1.c1ccc(-c2ccnc3c2ccc2c(-c4ccccc4)ccnc23)cc1", "note": "[[Ru(dip)3]^2+]", "values": [{"measurement": "Cytotoxicity (IC50)", "setting": "[7]; 24 h incubation, MTT", "value": "most cytotoxic compound"}, {"measurement": "IC50", "setting": "[1]", "value": "8.3 ± 1.1", "unit": "µM"}, {"measurement": "IC50", "setting": "[2]", "value": "4.1 ± 1.6", "unit": "µM"}, {"measurement": "Increase of ruthenium concentration in a cell (uptake)", "setting": "[8]", "value": "highest uptake by cells"}, {"measurement": "Effect on cell adhesion / cell detachment (in words)", "setting": "[4]; 24 h, non-toxic concentrations, effect seen from 1 µM", "value": "high activity in inhibiting of cell detachment"}]}, {"smiles": "[Ru+2].c1ccc(-c2ccccn2)nc1.c1ccc(-c2ccnc3c2ccc2c(-c4ccccc4)ccnc23)cc1.c1ccc(-c2ccnc3c2ccc2c(-c4ccccc4)ccnc23)cc1", "note": "[[Ru(dip)2(bpy)]^2+]", "values": [{"measurement": "IC50", "setting": "[1]", "value": "22.5 ± 2", "unit": "µM"}, {"measurement": "IC50", "setting": "[2]", "value": "6.2 ± 2.8", "unit": "µM"}]}]}
